We go through 4 compounds from paper PMC10501326, “A Phase I Study of the Pan-Notch Inhibitor CB-103 for Patients with Advanced Adenoid Cystic Carcinoma and Other Tumors” (Cancer Research Communications, 2023).

Series [1] has as its system NOTCH-mutated advanced ACC. The conditions noted are these: 77 patients, cited from earlier work.
The next series deals with myeloma cell lines. Details: method as in PMID 21159606. The conditions noted are these: cited from earlier work.
The conditions of series [2]: advanced ACC population; cited from earlier work.
A short description of series [3]: Phase I/II safety and tolerability: DLTs and treatment-related adverse events (CTCAE v4.03). The format is in vivo. Particulars: added to CB-103; one patient. The text has this:
The study was an open-label, nonrandomized, phase I/II dose-escalation study with planned expansion cohorts. […] Part B was a potential expansion phase at the MTD/RP2D to determine preliminary evidence of antitumor activity and to confirm safety among patients stratified by preselected cancer indications.
Part A was based on a two-parameter Bayesian logistic regression model (BLRM) to investigate safety and tolerability of sequentially enrolled dose cohorts of 3–6 patients. The first 2 participants of each cohort were enrolled in a staggered approach with at least 1 day apart between first dosing.
(§1) 12-lead electrocardiograms and Holter safety monitoring with periodic cardiac imaging was employed. Efficacy assessments used RECIST v1.1 applied to CT/MRI scans performed at screening and every 8 weeks; or evaluated complete remission with complete hematologic recovery by National Comprehensive Cancer Network guideline criteria for T-ALL/T-LBL. Adherence to study drug administration was evaluated using both patient diaries and capsule counts.
Secondary endpoints included assessment of clinical benefit rate [CBR; defined as achieving complete and/or partial response and/or stable disease (SD) at prespecified benchmarks], duration of response, progression-free survival (PFS) and overall survival (OS), and plasma pharmacokinetics.
The SS was the primary population for all safety and efficacy analyses, except for determination of dose-DLT relationship.
Under this model, and accounting for dropouts and some additional patients enrolled to each cohort, approximately 55 patients were anticipated to enroll in dose escalation and approximately 45 patients in the confirmatory phase. […] All statistical analyses were analyzed using SAS v9.4 software.

In series [4] the test system is advanced solid tumors, adenoid cystic carcinoma (ACC). Put plainly: Antitumor efficacy and survival (RECIST v1.1 response, CBR, PFS, OS). The format is in vivo, human.
Source text: The study enrolled adults with histologically confirmed, locally advanced and/or metastatic solid tumors who had progressed on at least one line of prior systemic therapy (except for ACC) and relapsed/refractory T-ALL/LBL for whom no standard therapy was available. In dose escalation, participants with solid tumors with known or frequent Notch pathway–activating mutations were eligible (breast cancer, gastrointestinal tumors, hepatocellular carcinoma, osteosarcoma, malignant glomus tumor, and ACC), while the confirmatory cohort planned to enroll participants with selected tumor types (including T-ALL/LBL) and confirmed Notch pathway activation. Key eligibility criteria included patients ≥18 years of age with evaluable disease, Eastern Cooperative Oncology Group (ECOG) performance status 0–1, able to swallow capsules, and adequate organ function. Participants were excluded if they had clinically significant cardiac disease or thromboembolic events within the preceding 6 months, and drugs prolonging the QTc were avoided. A complete list of eligibility criteria is outlined in the Supplementary Materials and Methods.
as §1, with “Safety was assessed via monitoring of DLTs during the first treatment cycle, and of AEs, physical exam, and clinical lab results (hematology, coagulation, blood chemistry, urinalysis, and cardiac markers) throughout the study (Supplementary Table S1). 12-lead” for “12-lead”
The primary endpoint for dose escalation was the number of patients experiencing DLT during the first 28-day cycle of CB-103 and for the confirmatory phase, the incidence rate, severity, and relationship of AEs to CB-103. Secondary endpoints included assessment of clinical benefit rate [CBR; defined as achieving complete and/or partial response and/or stable disease (SD) at prespecified benchmarks], duration of response, progression-free survival (PFS) and overall survival (OS), and plasma pharmacokinetics.
The objective of the BLRM design ([10]) was to determine the MTD defined as the highest dose with less than 25% risk of the true DLT rate being above 33%. The MTD was considered reached if one of the following criteria was fulfilled: (i) if the posterior probability of the true DLT rate in the target interval (16%–33%) of the MTD was >50%, and (ii) at least 6 patients were treated at the MTD. Under this model, and accounting for dropouts and some additional patients enrolled to each cohort, approximately 55 patients were anticipated to enroll in dose escalation and approximately 45 patients in the confirmatory phase. Data were reported using 95% confidence intervals (CI) and survival endpoints (PFS, OS) are reported from the time of first treatment to the first of progression or death summarized by Kaplan–Meier estimates. All statistical analyses were analyzed using SAS v9.4 software.

Consider `CN1C(=O)[C@@H](NC(=O)[C@H](CCC(F)(F)F)[C@H](CCC(F)(F)F)C(N)=O)N=C(c2ccccc2)c2ccccc21` [AL101], for which the Disease control rate in series [1] (benchmark not reported) is reported as 69%. For the same compound, in series [1], the Partial response rate is listed as 12% and the “Patients exhibiting SD” value is recorded as 57%.
Take `CN(C)CC[C@H](CSc1ccccc1)Nc1ccc(S(=O)(=O)NC(=O)c2ccc(N3CCN(Cc4ccccc4-c4ccc(Cl)cc4)CC3)cc2)cc1[N+](=O)[O-]` [ABT-737]: the “Effect of combining with a GSI” value with myeloma cell lines is listed as “synergism”.
As to `CNC(=O)c1ccccc1Sc1ccc2c(/C=C/c3ccccn3)n[nH]c2c1` [axitinib], the “Discontinuation rates for toxicity” value in series [2] was at least 20%.
Take `CC1(C)CCC(CN2CCN(c3ccc(C(=O)NS(=O)(=O)c4ccc(NCC5CCOCC5)c([N+](=O)[O-])c4)c(Oc4cnc5[nH]ccc5c4)c3)CC2)=C(c2ccc(Cl)cc2)C1` [Venetoclax, reference compound]: in series [3], the Tolerance in combination entry is on record as “good tolerance”. Further, the “Effect of off-label addition to CB-103 after first progression” value in series [4] (1 patient with NOTCH1-activating metastatic ACC and tumor BCL2 overexpression) is listed as “additional tumor growth stabilization”. Also, the “Further disease stabilization, additional time” value in series [4] (off-label, added to CB-103 upon signs of disease progression, one patient, NOTCH1-activated metastatic ACC, BCL2 overexpression) is 3.5 months.
